Several values for one entry are separate records, joined by “and”; a condition that tells them apart may be missing. Equal entries are not always repeated. Entries after “also recorded” stand apart in the source; their conditions may differ. Marks after values point to notes of the source that are not given here.
Key:
[1] = test system: JHOC-5, TYKNU, PA-1, OAW42, ES-2, COV362 cell lines; test: Long-term proliferation assays, single-deficient or WT ovarian cell lines; format: cell-based
[2] = test system: Bin-67 xenograft tumors; test: SCCOHT xenograft model (Bin-67); format: in vivo
Method: EZH2 target inhibition was assessed by H3K27me3 levels in xenograft tissue collected on day 18 (FIG. 18B). Each point represents the ratio of H3K27me3 to total H3 from the tumor of a single animal.

[3] = test system: COV434 xenograft tumors; test: SCCOHT xenograft model (COV434); format: in vivo
Method: After day 28, a portion of the COV434 xenograft cohort were retained to monitor for tumor regrowth while under no treatment, of which there was none. EZH2 target inhibition was assessed by H3K27me3 levels in xenograft tissue collected on day 28 (FIG. 19B). Each point represents the ratio of H3K27me3 to total H3 from the tumor of a single animal.

[4] = test system: TOV112D xenograft tumors; test: SCCOHT xenograft model (TOV112D); format: in vivo
Method: EZH2 target inhibition was measured by H3K27me3 levels in xenograft tissue collected on day 14 (FIG. 20B). Each point represents the ratio of H3K27me3 to total H3 from the tumor of a single animal.

[5] = human, in vivo
Method: (§1) Table 2 describes a Phase 1 clinical trial design (sponsor protocol no.: E7438-G000-001, ClinicalTrials.gov identifier: NCT01897571). The study population included subjects with relapsed or refractory solid tumors or B-cell lymphoma. Subjects received a 3+3 dose-escalation in expansion cohorts receiving 800 mg BID and 1600 mg BID, respectively, or a cohort for ascertaining the effect of food on dosing at 400 mg BID. The primary endpoint was a determination of recommended phase II dose (RP2D)/maximum tolerated dose (MTD). Secondary endpoints included safety, pharmacokinetics (PK), pharmacodynamics (PD) and tumor response, assessed every 8 wks.

[6] = test system: INI1-negative malignant rhabdoid tumor; test: Phase 1 clinical activity, INI1-negative malignant rhabdoid tumor; format: in vivo, human; settings: for Best Response / Time on study: INI1-negative malignant rhabdoid tumor
Method: as §1

[7] = test system: INI1-negative epithelioid sarcoma; test: Phase 1 clinical activity, INI1-negative epithelioid sarcoma; format: in vivo, human
Method: as §1

[8] = test system: SMARCA4-negative malignant rhabdoid tumor of ovary (SCCOHT); test: Phase 1 clinical activity, SMARCA4-negative malignant rhabdoid tumor of ovary (SCCOHT); format: in vivo, human; settings: for Tumor size: person, 1600 mg BID oral tablet
Method: as §1

[9] = test system: SMARCA4-negative thoracic sarcoma; test: Phase 1 clinical activity, SMARCA4-negative thoracic sarcoma; format: in vivo, human; settings: 1600 mg BID
Method: as §1

[10] = test system: H3K27me3 in INI1- and SMARCA4-negative tumors; test: Pharmacodynamic H3K27me3 inhibition in tumor tissue of patients; format: in vivo, human
[11] = test system: MRT and MRTO/SCCOHT; test: Assessment of clinical activity in MRT and MRTO/SCCOHT; format: in vivo, human; settings: MRT and MRTO/SCCOHT following treatment
[12] = test system: Dual SMARCA2 and SMARCA4 deficient ovarian cell lines; settings: four SMARCA2-deficient and SMARCA4-deficient cell lines
[13] = test system: cell lines and xenografts deficient in INI1 (SNF5/SMARCB1); settings: Knutson et al. PNAS 2013; cited from earlier work
[14] = Oral bioavailability; settings: in vivo
[15] = test system: G401 xenograft
[16] = 800 mg BID, + = remains on study

Compound: CCN(c1cc(-c2ccc(CN3CCOCC3)cc2)cc(C(=O)NCc2c(C)cc(C)[nH]c2=O)c1C)C1CCOCC1 [tazemetostat]
- sensitivity [1]: Lower sensitivity
- tumor volume compared to vehicle ([2]; after 18 days): statistically significant differences in volume compared to vehicle
- H3K27me3 in xenograft tumors ([2]; after 18 days of treatment): reduction of H3K27me3
- tumor volume compared to vehicle ([3]; after 28 days): statistically significant differences in volume compared to vehicle
- tumor regrowth while under no treatment ([3]; after day 28): none
- tumor volume compared to vehicle ([4]; 14 days, twice daily): statistically significant differences in volume compared to vehicle
- H3K27me3 in xenograft tumors ([4]; after 14 days of treatment): reduction of H3K27me3
- Anemia, All Events, All Grades [5]: 7
- Anemia, All Events, Grade n [5]: 1
- Anemia, All Treatment-Related, All Grades [5]: 3
- Anemia, All Treatment-Related, Grade n [5]: 0
- Asthenia, All Events, All Grades [5]: 28
- Asthenia, All Events, Grade n [5]: 1
- Asthenia, All Treatment-Related, All Grades [5]: 12
- Asthenia, All Treatment-Related, Grade n [5]: 0
- Constipation, All Events, All Grades [5]: 7
- Constipation, All Events, Grade n [5]: 0
- Constipation, All Treatment-Related, All Grades [5]: 2
- Constipation, All Treatment-Related, Grade n [5]: 0
- Decreased appetite, All Events, All Grades [5]: 11
- Decreased appetite, All Events, Grade n [5]: 3
- Decreased appetite, All Treatment-Related, All Grades [5]: 3
- Decreased appetite, All Treatment-Related, Grade n [5]: 1
- Dysgeusia, All Events, All Grades [5]: 5
- Dysgeusia, All Events, Grade n [5]: 0
- Dysgeusia, All Treatment-Related, All Grades [5]: 5
- Dysgeusia, All Treatment-Related, Grade n [5]: 0
- Dyspnea, All Events, All Grades [5]: 8
- Dyspnea, All Events, Grade n [5]: 0
- Dyspnea, All Treatment-Related, All Grades [5]: 0
- Dyspnea, All Treatment-Related, Grade n [5]: 0
- Elevated LFTs, All Events, All Grades [5]: 2
- Elevated LFTs, All Events, Grade n [5]: 1
- Elevated LFTs, All Treatment-Related, All Grades [5]: 0
- Elevated LFTs, All Treatment-Related, Grade n [5]: 1
- Hypertension, All Events, All Grades [5]: 3
- Hypertension, All Events, Grade n [5]: 1
- Hypertension, All Treatment-Related, All Grades [5]: 1
- Hypertension, All Treatment-Related, Grade n [5]: 1
- Muscle Spasms, All Events, All Grades [5]: 5
- Muscle Spasms, All Events, Grade n [5]: 0
- Muscle Spasms, All Treatment-Related, All Grades [5]: 2
- Muscle Spasms, All Treatment-Related, Grade n [5]: 0
- Nausea, All Events, All Grades [5]: 8
- Nausea, All Events, Grade n [5]: 0
- Nausea, All Treatment-Related, All Grades [5]: 7
- Nausea, All Treatment-Related, Grade n [5]: 0
- Neutropenia, All Events, All Grades [5]: 2
- Neutropenia, All Events, Grade n [5]: 1
- Neutropenia, All Treatment-Related, All Grades [5]: 1
- Neutropenia, All Treatment-Related, Grade n [5]: 1
- Thrombocytopenia, All Events, All Grades [5]: 10
- Thrombocytopenia, All Events, Grade n [5]: 2
- Thrombocytopenia, All Treatment-Related, All Grades [5]: 6
- Thrombocytopenia, All Treatment-Related, Grade n [5]: 1
- Vomiting, All Events, All Grades [5]: 6
- Vomiting, All Events, Grade n [5]: 0
- Vomiting, All Treatment-Related, All Grades [5]: 3
- Vomiting, All Treatment-Related, Grade n [5]: 0
- Best Response ([6]; 400 mg BID): SD week 8
- Time on study ([6]; 400 mg BID, + = remains on study): 12+ weeks
- Best Response ([6]; 800 mg BID): complete remission (CR); also recorded: CR week 8*; also recorded: PD week 8
- Time on study [6, 16]: 65+ weeks and 35 weeks
- Time on study ([6]; 1600 mg BID): 16 weeks and 17 weeks
- response ([6]; patient with INI1-negative (IHC) relapsed malignant rhabdoid tumor, Phase 1): complete response
- Best Response ([7]; 400 mg BID): PD week 8
- Time on study ([7]; 400 mg BID): 11 weeks
- Best Response ([7]; 800 mg BID): partial remission (PR); also recorded: PR week 8; also recorded: SD week 8
- Time on study [7, 16]: 25+ weeks and 24+ weeks
- clinical activity ([8]; Phase 1, two patients with SCCOHT (SMARCA4-negative)): Clinical activity was observed
- Best Response ([8]; SMARCA4-negative SCCOHT, 1600 mg BID): PR week 8*; also recorded: SD week 8
- Time on study ([8]; SMARCA4-negative SCCOHT, 1600 mg BID, + = remains on study): 25+ weeks and 26+ weeks
- Tumor size ([8]; after 8 weeks): decreased from baseline
- Tumor size ([8]; after 16 weeks): further decreased from the 8 week measurement
- Best Response [9]: PD week 5
- Time on study [9]: 6 weeks
- pharmacodynamics inhibition of HeK27me3 in tumor tissue [10]: induces pharmacodynamics inhibition of HeK27me3
- clinical activity [11]: stable disease for at least six months, partial remission or complete remission
- inhibition of cell growth [12]: Dose-dependent inhibition of cell growth
- sensitivity of INI1-deficient cell lines and xenografts [13]: profound sensitivity and durable regressions
- oral bioavailability [14]: orally bioavailable
- antitumor activity [15]: antitumor activity

— patent US20200138825A1, “METHOD OF TREATING MALIGNANT RHABDOID TUMOR OF THE OVARY (MRTO)/SMALL CELL CANCER OF THE OVARY OF THE HYPERCALCEMIC TYPE(SCCOHT) WITH AN EZH2 INHIBITOR” (Epizyme, Inc., priority 2015, published 2020)
